Test results reported in PubChem BioAssay (NCI).
Values joined by “and” are separate entries in the source; they are usually repeats but may differ in a detail not shown here. Identical values can stand only once.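 Method: 48-hour compound exposure of cells in 96-well plates, five concentrations, linear interpolation of endpoints. GI50 is the concentration that inhibits growth by half. TGI marks complete inhibition of growth.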

Assays:
Experiment in all cases: growth of human tumour cells (NCI), 48 h
KM20L2 colon = system: KM20L2 colon
DMS 114 small cell lung = system: DMS 114 small cell lung
DLD-1 colon = system: DLD-1 colon
DMS 273 small cell lung = system: DMS 273 small cell lung
RXF-631 renal = system: RXF-631 renal
SNB-78 CNS = system: SNB-78 CNS
MDA-N = system: MDA-N
XF 498 CNS = system: XF 498 CNS
M19-MEL melanoma = system: M19-MEL melanoma

SMILES | TGI (KM20L2 colon) [µM] | TGI (DMS 114 small cell lung) [µM] | TGI (DLD-1 colon) [µM] | TGI (DMS 273 small cell lung) [µM] | TGI (RXF-631 renal) [µM] | TGI (SNB-78 CNS) [µM] | TGI (MDA-N) [µM] | GI50 (KM20L2 colon) [µM] | GI50 (XF 498 CNS) [µM] | TGI (XF 498 CNS) [µM] | GI50 (DLD-1 colon) [µM] | GI50 (DMS 273 small cell lung) [µM] | TGI (M19-MEL melanoma) [µM] | GI50 (SNB-78 CNS) [µM] | GI50 (MDA-N)
Cc1ccccc1NC(=O)c1cc(-c2ccc([N+](=O)[O-])cc2)nc(=S)[nH]1 | > 100 | > 100 | > 100 | > 100 | > 100 | > 100 | – | – | – | – | – | – | – | – | –
Cc1[nH]nc(C(F)(F)F)c1N=NN(C)C | – | – | – | – | – | – | > 100 | – | – | – | – | – | – | – | –
CCOC(=O)c1cc2cc3c4c(c2oc1=O)CCCN4CCC3 | – | – | – | – | – | – | > 100 | – | – | – | – | – | – | – | –
O=C(O)c1ccc(CI)cc1 | – | – | – | – | – | – | 34.4 | – | – | – | – | – | – | – | –
CCC[CH2][Sn]([Cl])([Cl])[CH2]CCC | 3.01 | – | 1.99 | 3.73 | – | 1.43 | – | 1.49 | 0.534 | 1.44 | 0.649 | 1.29 | 2.21 | 0.333 | –
NCCSSCCN | > 100 | > 100 | > 100 | > 100 | > 100 | > 100 | > 100 | – | – | > 100 | – | – | > 100 | – | –
CC1=Nc2c(ccc3c2C(=O)c2ccccc2C3=O)NC(c2cccc3c2CCC3)C1 (stereo unspecified) | > 100 | – | > 100 | > 100 | > 100 | > 100 | – | – | – | > 100 | – | – | > 72.6 | – | –
CC1=C[C@H]2c3c([nH]c4ccccc34)C(c3c[nH]c4ccccc34)[C@H]2CC1 (stereo partly specified) | – | 20.5 | 19.1 | 15.8 | 14.1 | 13.2 | – | – | – | – | – | – | 22.9 | – | –
O=C(Cc1nc2ccccc2c(=O)n1-c1ccccc1Cl)c1ccncc1 | > 100 | > 100 | > 100 | > 100 | > 100 | > 100 | – | – | – | – | – | – | > 100 | – | –
COC12CCC(=O)C=C1c1ccccc1N2C(C)=O (stereo unspecified) | > 100 | > 100 | > 100 | > 100 | – | > 100 | – | – | – | > 100 | – | – | > 100 | – | –
CC1CCC2(NC1)OC1CC3C4CC=C5CC(O)CCC5(C)C4CCC3(C)C1C2C (stereo unspecified) | – | – | – | – | – | – | > 100 | – | – | – | – | – | – | – | 31.1 µM and 12.2 µM
COC(=O)C1C(O)CCC2CN3CCc4c([nH]c5ccccc45)C3CC21 (stereo unspecified) | – | – | – | – | – | – | > 100 | – | – | – | – | – | – | – | –
Cc1nn[n-]n1.N.N.N.N.N.[Cl-].[Co+3] | > 100 | – | > 100 | > 100 | – | > 100 | – | > 100 | – | – | > 100 | > 100 | – | > 100 | –
CC1=C(C(=O)CC(=O)C(=O)Nc2cc(C)ccc2C)Sc2ccccc2N1 | – | > 100 | > 100 | – | > 100 | > 100 | – | – | – | > 100 | – | – | > 100 | – | –
CN(C)CCNc1ccc(CO)c2sc3ccc(O)cc3c(=O)c12 | 22.7 | 16.5 | 18.6 | 9.97 | – | > 45.6 | 3.7 | – | – | 19.9 | – | – | 15.9 | – | –
CCCNC(=O)C1C(=O)C(=O)N(CCC)C1=O (stereo unspecified) | > 100 | > 100 | > 100 | > 100 | – | > 100 | – | – | – | > 100 | – | – | > 100 | – | –
CC1/C=C/[C@@]2(C)CCC(C(C)(C)O)C2C(O)C[C@](C)(O)/C=C/C1 (stereo partly specified) | > 100 | > 100 | > 100 | > 100 | – | > 100 | – | – | – | > 100 | – | – | – | – | –
CC(=O)N/N=C1\CC(C)(C)C2CCC1C2 (stereo unspecified) | – | > 100 | – | > 100 | – | > 100 | – | – | – | > 100 | – | – | > 100 | – | –
CCC(=O)c1c(NOC2OCC(OC(C)=O)C(OC(C)=O)C2OC(C)=O)nc(OC)n(C)c1=O (stereo unspecified) | > 100 | > 100 | > 100 | > 100 | – | > 100 | – | – | – | > 100 | – | – | > 100 | – | –
